Patent US11891464B2, “Alkane-soluble non-metallocene precatalysts” (Dow Global Technologies LLC, priority 2018, dated 2024)

Legend:
[1] = Light-off Test Method (time to maximum temperature in polymerization of 1-octene); conditions: for Light-off Performance (Time to Maximum (minutes)): 8 micromoles precatalyst, 0.16 g spray dried methylaluminoxane, 11 mL 1-octene
Protocol: Light-off Test Method: Under an atmosphere of nitrogen in a glovebox, charge a 40 mL glass vial with a PTFE-coated, magnetic stir bar and 0.16 g of spray dried methylaluminoxane powder of Preparation 1A. To the charged vial add 11 mL of 1-octene, and then insert the vial into an insulated sleeve mounted on a magnetic stir plate turning at approximately 300 rotations per minute (rpm). To the insulated vial add 8 micromoles (μmol) of precatalyst (e.g., compound (1) or HN5Zr dibenzyl). Cap the vial with a rubber septum. Insert a thermocouple probe through the rubber septum into the vial such that the tip of the thermocouple probe is below the liquid level. Record the temperature of the contents of the vial at 5 second intervals, continuing until after the maximum temperature is reached. Download the temperature and time data to a spreadsheet, and plot thermo-kinetic profiles for analysis.

[2] = Solubility Test Method (solubility in hexanes); type: physicochemical; conditions: hexanes containing at least 60 wt % n-hexane; room temperature and ambient pressure
Protocol: Solubility Test Method: to a 20-mL vial is added, at room temperature and ambient pressure, a known mass of test precatalyst (e.g., compound (1)) and a known volume of hexanes containing at least 60 weight percent n-hexane. A PTFE-coated magnetic stir bar is added and the mixture is allowed to stir for 1 hour before the vial is removed from the stir plate, and the mixture is allowed to sit overnight. The next day the suspension is filtered through a 0.4 μm PTFE syringe filter into a tared vial, giving a known mass of supernatant, and the hexanes are removed under reduced pressure, leaving a measurable mass of the compound of formula (1) from which wt. % solubility is calculated.

| Compound | Light-off Performance (Time to Maximum (minutes)) [1] [min] | time to maximum temperature, times better than HN5Zr dichloride (CE1) ([1]; relative to HN5Zr dichloride (CE1)) [times] | Solubility in Hexanes (wt %) [2] [wt %] |
| --- | --- | --- | --- |
| Cc1c(C)c(C)c([N-]CCNCC[N-]c2c(C)c(C)c(C)c(C)c2C)c(C)c1C.[Cl-].[Cl-].[Zr+4] [HN5Zr dichloride (CE1)] | 5.2 | – | – |
| bis(2-(pentamethylphenylamido)ethyl)-amine zirconium(IV) bis-trimethylsilylmethyl [Compound (1A)] | 1.3 | 4 | – |
| Cc1c(C)c(C)c([N-]CCNCC[N-]c2c(C)c(C)c(C)c(C)c2C)c(C)c1C.[CH2-]c1ccccc1.[CH2-]c1ccccc1.[Zr+4] [HN5Zr dibenzyl (CE2)] | 78.6 | – | 0.03 |
